Results as given in patent US20060153785A1, “Moisturizers comprising one or more of gamma-polyglutamic acid (gamma-PGA, H form), gamma-polyglutamates and gamma-polyglutamate hydrogels for use in cosmetic or personal care products” (priority 2005, published 2006).

Assays:
[1] = test system: outside skin surface of the arm of a test panelist; test: Moisture retention of skin after peeling off facial moisture mask (capacitance, SHP88); format: in vivo, human (panelists); conditions: 5.0% moisturizer in facial moisture mask; mask film peeled off after 15 minutes; 23° C., RH 65%
Procedure: The species and proportions of the ingredients contained in the exemplified facial moisture mask formulation are listed in Table 5.
The samples of 0.2 grams from experimental example 4 were taken and evenly spread over an area of 25 cm^2 on the outside skin surface of the arm of a test panelist, and the film formation time was closely observed and recorded (see Characteristic Properties of N-Carboxybutyl Chitosan. Carbohydr. Polym. 11:307-320, 1989, Muzzarelli, R. A. A. et al.) at 23° C. under an environment of relative humidity (RH) of 65%. A group of 10 panelists participated in this test. In a separate experiment, the mask film formed after 15 minutes was peeled off, then the […] of the skin was measured at 23° C. under an environment of relative humidity of 65% with a probe of the Skin Analysis SHP88 of Courage ^+Khazaka Electronic Gmbh, Germany. The moisture retention of the skin was immediately measured at 23° C. under an environment of relative humidity of 65% with a probe of the Skin Analysis SHP88, and expressed in unit of capacitance increase ratio, %.

tyrosinase = test: Inhibition of tyrosinase activity (absorbency at 475 nm); format: biochemical; conditions: 1.0% sample
Procedure: Although the formation of black pigment melanin on skin is complicated, it is generally realized that tyrosine is oxidized to DOPA (Dihydroxy Phenyalanine) by the catalysis of tyrosinase from melansome of melanocyte. The DOPA is further oxidized and finally converted into colored melanin-protein complex. […] Determination of total absorbency at wavelength of 475 nm: To a 25 ml sample test tube, add 0.9 ml of 0.1M phosphate buffer solution (pH 6.8), 1 ml of γ-polyglutamate (Na^+ form) sample and 1 ml of 0.25 mg/ml tyrosine solution and mix well, then incubate at 37° C. for 10 minutes. […] Sample of the reaction solution is then taken for measuring the absorbency at 475 nm, and recorded as At. • b. Determination of the blank absorbance of tyrosinase solutuion: Replace 0.1 ml of buffer solution with tyrosinase solution, and repeat the same procedure in item (a), and record the absorbency at 475 nm as A1. • c. Replace 1 ml sample solution with buffer solution, and repeat the same procedure in item (a), and record the absorbance at 475 nm as Ab. • d. Determination of total blank absorbance of test solution: Replace 1 ml sample solution with buffer solution, and 0.1 ml of tyrosinase solution with buffer solution, and repeat the procedure in item (a), and record the absorbency at 475 nm as Ao. • e. […]

[2] = test system: inside skin surface of a test panelist's arm; test: Water retention on skin after skin vital moisture cream (capacitance, Skin Analysis SHP88); format: in vivo, human (panelists); conditions: 5% moisturizer in cream

With `CC(O)CCO` (stereo not shown) [1,3-BG, 1,3-Butyl Glycol] the “Capacitance Increase Ratio” value [1] was 73.2%.

For `O=c1cc(CO)occ1O` [Kojic Acid], the “Inhibition of Tyrosinase Activity” value (tyrosinase) was 100.0%.

In the case of `CC(O)CO` (stereo not shown) [Propylene Glycol], the “Capacitance Increase Ratio” value ([2]; time 0 min) is reported as 0%, the “Capacitance Increase Ratio” value ([2]; time 5 min) is reported as 105% and the “Capacitance Increase Ratio” value ([2]; time 10 min) is reported as 57%. For the same compound, the “Capacitance Increase Ratio” value ([2]; time 20 min) was 51%, the “Capacitance Increase Ratio” value ([2]; time 40 min) was 40% and the “Capacitance Increase Ratio” value ([2]; time 80 min) was 38%. The “Capacitance Increase Ratio” value ([2]; time 120 min) was 36%.

In the case of `O=C1O[C@H]([C@@H](O)CO)C(O)=C1O` [Vitamin C], the “Inhibition of Tyrosinase Activity” value (tyrosinase) is reported as 99.4%.
